Assay results taken from PubChem BioAssay AID248 (DTP/NCI, 2004).
Inconclusive results and toxic doses are left out. Cut-off read from the data, not from the text of the source: active = T/C of 150% or more; inactive = T/C below 125%.

Test system: L1210 leukemia ip in BDF1 mice, survival T/C
Test: NCI In Vivo Anticancer Drug Screen. Data for tumor model L1210 Leukemia (intraperitoneal) in B6D2F1 (BDF1) mice
Conditions: endpoint: mean survival time, higher = longer survival
Procedure, shortened: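 In this screen, tumor-bearing mice given compound are compared to those given vehicle, and their survival values are reported as a treated-to-control quotient.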

[1] = dose: 100.0 mg/kg/injection, schedule: Q01DX009 (ip), vehicle: saline
[2] = dose: 200.0 mg/kg/injection, schedule: Q01DX009 (ip), vehicle: saline
[3] = dose: 400.0 mg/kg/injection, schedule: Q01DX009 (ip), vehicle: saline
[4] = dose: 100.0 mg/kg/injection, schedule: Q01DX001 (ip), vehicle: Klucel (hydroxypropylcellulose) (HPC)
[5] = dose: 100.0 mg/kg/injection, schedule: Q01DX001 (ip), vehicle: saline
[6] = dose: 200.0 mg/kg/injection, schedule: Q01DX001 (ip), vehicle: saline
[7] = dose: 400.0 mg/kg/injection, schedule: Q01DX001 (ip), vehicle: saline
[8] = dose: 100.0 mg/kg/injection, schedule: Q01DX009 (ip), vehicle: Klucel (hydroxypropylcellulose) (HPC)
[9] = dose: 200.0 mg/kg/injection, schedule: Q01DX009 (ip), vehicle: Klucel (hydroxypropylcellulose) (HPC)
[10] = dose: 400.0 mg/kg/injection, schedule: Q01DX009 (ip), vehicle: Klucel (hydroxypropylcellulose) (HPC)
[11] = dose: 200.0 mg/kg/injection, schedule: Q01DX001 (ip), vehicle: Klucel (hydroxypropylcellulose) (HPC)
[12] = dose: 400.0 mg/kg/injection, schedule: Q01DX001 (ip), vehicle: Klucel (hydroxypropylcellulose) (HPC)

Measured: T/C

O=NN(CCCl)C(=O)Nc1ccc(CCCl)cc1
active: dose: 10.0 mg/kg/injection, schedule: Q01DX001 (ip), vehicle: carboxymethylcellulose (CMC) 161 % of control | dose: 20.0 mg/kg/injection, schedule: Q01DX001 (ip), vehicle: carboxymethylcellulose (CMC) 152 % of control | dose: 33.0 mg/kg/injection, schedule: Q01DX001 (ip), vehicle: carboxymethylcellulose (CMC) 246 % of control | dose: 50.0 mg/kg/injection, schedule: Q01DX001 (ip), vehicle: carboxymethylcellulose (CMC) 216 % of control
inactive: dose: 33.0 mg/kg/injection, schedule: Q01DX009 (ip), vehicle: carboxymethylcellulose (CMC) 107 % of control | dose: 50.0 mg/kg/injection, schedule: Q01DX009 (ip), vehicle: carboxymethylcellulose (CMC) 87 % of control

COc1ccc2c(c1)CN(S(=O)(=O)c1ccc(C)cc1)CCC2=O
inactive: [1] 102 % of control | [2] 98 % of control | [3] 95 % of control

C[P+]1(CCc2ccc(Cl)cc2)CC(Br)C(Br)C1 (stereo not given)
inactive: [4] 104 % of control

CCCCCCCCCCCCCCCCCCCCCCCCCC(=O)OCCCCCCCCCCCCCC
inactive: [1] 107 % of control | dose: 100.0 mg/kg/injection, schedule: Q04DX003 (ip), vehicle: saline 109 % of control | [2] 96 % of control | dose: 200.0 mg/kg/injection, schedule: Q04DX003 (ip), vehicle: saline 97 % of control | [3] 94 % of control | dose: 400.0 mg/kg/injection, schedule: Q04DX003 (ip), vehicle: saline 98 % of control

CC1(C)OC2COC(c3[nH]nc(C(N)=O)c3C(=O)N=[N+]=[N-])C2O1 (stereo not given)
inactive: dose: 100.0 mg/kg/injection, schedule: Q01DX005 (ip), vehicle: saline 101 % of control | dose: 200.0 mg/kg/injection, schedule: Q01DX005 (ip), vehicle: saline 101 % of control

CCN(CC)CCC(CC=C(C)C)(C(N)=O)c1cccc2ccccc12 (stereo not given)
inactive: dose: 5.0 mg/kg/injection, schedule: Q04DX003 (ip), vehicle: saline with Tween-80 98 % of control | dose: 10.0 mg/kg/injection, schedule: Q04DX003 (ip), vehicle: saline with Tween-80 100 % of control | dose: 20.0 mg/kg/injection, schedule: Q04DX003 (ip), vehicle: saline with Tween-80 109 % of control

CC(C)OC(=O)c1cccc2c1-c1ccccc1C2=O
inactive: [5] 92 % of control | [6] 92 % of control | [7] 95 % of control

CN(CCNC(=O)C1CCCCC1C(=O)O)c1ccccc1 (stereo not given)
inactive: [8] 98 % of control | [9] 92 % of control | [10] 96 % of control

Clc1nnc(-c2ccccc2)c(-c2ccccc2)n1
inactive: dose: 25.0 mg/kg/injection, schedule: Q01DX009 (ip), vehicle: saline with Tween-80 95 % of control | dose: 50.0 mg/kg/injection, schedule: Q01DX009 (ip), vehicle: saline with Tween-80 95 % of control | dose: 100.0 mg/kg/injection, schedule: Q01DX009 (ip), vehicle: saline with Tween-80 97 % of control

CCOP(=S)(OCC)Oc1ccc(Sc2ccc(OP(=S)(OCC)OCC)cc2)cc1
inactive: [5] 101 % of control | [6] 101 % of control | [7] 107 % of control

C=CC[n+]1ccccc1Cc1ccccc1
inactive: dose: 6.25 mg/kg/injection, schedule: Q01DX009 (ip), vehicle: saline 100 % of control | dose: 12.5 mg/kg/injection, schedule: Q01DX009 (ip), vehicle: saline 108 % of control | dose: 12.5 mg/kg/injection, schedule: Q04DX003 (ip), vehicle: saline 104 % of control | dose: 25.0 mg/kg/injection, schedule: Q01DX009 (ip), vehicle: saline 103 % of control | dose: 25.0 mg/kg/injection, schedule: Q04DX003 (ip), vehicle: saline 107 % of control

O=[N+]([O-])c1ccc(N=N/C(=N\Nc2ccccc2)c2ccccc2)cc1
inactive: [8] 89 % of control | [9] 89 % of control | [10] 94 % of control

O=[N+]([O-])c1cc(Br)cnc1Br
inactive: [4] 100 % of control | [8] 101 % of control | [11] 105 % of control | [9] 96 % of control | [12] 105 % of control | [10] 103 % of control

CC(C)=CCc1cc(OC(=O)OCc2ccccc2)c2ccccc2c1O
inactive: [4] 96 % of control | [11] 93 % of control | [12] 101 % of control
